Laboratory results from patent publication US20230365533A1, “BICYCLOHEPTANE PYRROLIDINE OREXIN RECEPTOR AGONISTS” (MERCK SHARP & DOHME CORP., priority 2021, published 2023).

Target: T1, human OX2R (Homo sapiens, UniProt O43614)
T1 construct: expressed in transfected cells; host or cells: CHO (Chinese hamster ovary) cells, grown under G418 selection
T1 sequence (O43614 1-444): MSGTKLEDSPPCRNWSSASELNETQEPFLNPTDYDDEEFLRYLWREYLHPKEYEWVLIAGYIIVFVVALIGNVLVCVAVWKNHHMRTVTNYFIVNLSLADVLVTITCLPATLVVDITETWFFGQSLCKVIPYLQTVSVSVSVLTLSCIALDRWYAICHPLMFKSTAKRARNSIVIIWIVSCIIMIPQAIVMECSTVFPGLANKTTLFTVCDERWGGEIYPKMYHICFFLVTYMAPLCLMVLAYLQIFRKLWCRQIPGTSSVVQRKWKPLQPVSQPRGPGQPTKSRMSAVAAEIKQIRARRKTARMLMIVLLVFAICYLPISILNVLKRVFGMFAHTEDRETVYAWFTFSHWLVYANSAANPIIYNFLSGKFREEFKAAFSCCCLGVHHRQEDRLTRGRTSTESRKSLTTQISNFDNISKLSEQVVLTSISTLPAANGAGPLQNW
Assay: IPOne (IP-1) orexin receptor agonist assay in CHO cells expressing human OX2R
Type: cell-based
Conditions: IPOne assay, CHO cells expressing human OX2R, 2 hours incubation; read-out: hoX2R_IP IC50
Method in brief: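 CHO cells with human OX2R treated 2 h at 37 °C with 10-point ½-log compound dilutions in stimulation buffer; IP-1 accumulation read by HTRF (665/620 nm) after 60 min detection. EC50 from four-parameter fit; % effect versus a 1 uM reference agonist.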

SMILES | IC50
CC(C)OC(=O)N1[C@H](C)C[C@H](NS(=O)(=O)N(C)C)[C@@H]1COC1CCC2(c3ncccn3)CC2C1 (stereo partly drawn) [Example 174, isopropyl (2R,3S,5R)-3-((N,N-dimethylsulfamoyl)amino)-5-methyl-2-(((6-(pyrimidin-2-yl)bicyclo[4.1.0]heptan-3-yl)oxy)methyl)pyrrolidine-1-carboxylate] | 7.5 nM
C[C@@H]1C[C@H](NS(C)(=O)=O)[C@H](CO[C@H]2CC[C@@]3(c4ncc(F)cn4)C[C@H]3C2)N1C(=O)OC[C@H]1[C@H](C)C1(F)F [Example 55, ((1R,3S)-2,2-difluoro-3-methylcyclopropyl)methyl (2R,3S,5R)-2-((((1S,3S,6R)-6-(5-fluoropyrimidin-2-yl)bicyclo[4.1.0]heptan-3-yl)oxy)methyl)-5-methyl-3-(methylsulfonamido)pyrrolidine-1-carboxylate] | 1 nM
C[C@@H]1C[C@H](NS(C)(=O)=O)[C@H](CO[C@H]2CC[C@@]3(c4ncc(F)cn4)C[C@H]3C2)N1C(=O)OC[C@H]1C[C@H]1F [Example 51, ((1R,2R)-2-fluorocyclopropyl)methyl (2R,3S,5R)-2-((((1S,3S,6R)-6-(5-fluoropyrimidin-2-yl)bicyclo[4.1.0]heptan-3-yl)oxy)methyl)-5-methyl-3-(methylsulfonamido)pyrrolidine-1-carboxylate] | 1.3 nM
COC(=O)N1[C@H](C)C[C@H](NS(=O)(=O)N(C)C)[C@@H]1COC1CCC2(c3ccccn3)CC2C1 (stereo partly drawn) [Example 9, methyl (2R,3S,5R)-3-((N,N-dimethylsulfamoyl)amino)-5-methyl-2-(((6-(pyridin-2-yl)bicyclo[4.1.0]heptan-3-yl)oxy)methyl)pyrrolidine-1-carboxylate] | 28.8 nM
COC(=O)N1[C@H](C)C[C@H](NS(=O)(=O)N(C)C)[C@@H]1COC1CCC2(c3cnccn3)CC2C1 (stereo partly drawn) [Example 10, methyl (2R,3S,5R)-3-((N,N-dimethylsulfamoyl)amino)-5-methyl-2-(((6-(pyrazin-2-yl)bicyclo[4.1.0]heptan-3-yl)oxy)methyl)pyrrolidine-1-carboxylate] | 323 nM
CCS(=O)(=O)N[C@H]1[C@H]2CCC[C@H]2N(C(=O)OC)[C@H]1COC1CCC2(c3ncc(F)cn3)CC2C1 (stereo partly drawn) [Example 129, methyl (2R,3S,3aS,6aR)-3-(ethylsulfonamido)-2-(((6-(5-fluoropyrimidin-2-yl)bicyclo[4.1.0]heptan-3-yl)oxy)methyl)hexahydrocyclopenta[b]pyrrole-1(2H)-carboxylate] | 0.9 nM
COC(=O)N1[C@H](C)C[C@H](NS(=O)(=O)C(F)F)[C@@H]1CO[C@H]1CC[C@@]2(c3ncccn3)C[C@H]2C1 (single isomer, unassigned) [Example 68] | 1.5 nM
COC(=O)N1[C@H](C)C[C@H](NS(C)(=O)=O)[C@@H]1CO[C@H]1CC[C@@]2(c3nccs3)C[C@H]2C1 (single isomer, unassigned) [Example 146] | 50.7 nM
CCS(=O)(=O)N[C@H]1CCCN(C(=O)OC(C)C)[C@H]1COC1CC[C@@]2(c3ncc(F)cn3)CC2C1 (stereo partly drawn) [Example 126, isopropyl (2R,3S)-3-(ethylsulfonamido)-2-(((6-(5-fluoropyrimidin-2-yl)bicyclo[4.1.0]heptan-3-yl)oxy)methyl)piperidine-1-carboxylate] | 3.3 nM
C[C@@H]1C[C@H](NS(C)(=O)=O)[C@H](CO[C@H]2CC[C@@]3(c4ncc(F)cn4)C[C@H]3C2)N1C(=O)OCC1CC(F)C1 (stereo partly drawn) [Example 49, (3-fluorocyclobutyl)methyl (2R,3S,5R)-2-((((1S,3S,6R)-6-(5-fluoropyrimidin-2-yl)bicyclo[4.1.0]heptan-3-yl)oxy)methyl)-5-methyl-3-(methylsulfonamido)pyrrolidine-1-carboxylate] | 1.1 nM
COC(=O)N1[C@H](C)C[C@H](NS(C)(=O)=O)[C@@H]1COC1CCC2(c3nccs3)CC2C1 (stereo partly drawn) [Example 149, methyl (2R,3S,5R)-5-methyl-3-(methylsulfonamido)-2-(((6-(thiazol-2-yl)bicyclo[4.1.0]heptan-3-yl)oxy)methyl)pyrrolidine-1-carboxylate] | 179 nM

Other lines, results leading:

IC50 | SMILES
1.7 nM | C[C@@H]1C[C@H](NS(C)(=O)=O)[C@H](CO[C@H]2CC[C@@]3(c4ncc(F)cn4)C[C@H]3C2)N1C(=O)OCCF [Example 62, 2-Fluoroethyl (2R,3S,5R)-2-((((1S,3S,6R)-6-(5-fluoropyrimidin-2-yl)bicyclo[4.1.0]heptan-3-yl)oxy)methyl)-5-methyl-3-(methylsulfonamido)pyrrolidine-1-carboxylate]
173 nM | COC(=O)N1[C@H](C)C[C@H](NS(=O)(=O)Cc2ccccc2)[C@@H]1CO[C@@H]1CC[C@]2(c3ncc(F)cn3)C[C@@H]2C1 [Example 45, methyl (2R,3S,5R)-2-((((1R,3R,6S)-6-(5-fluoropyrimidin-2-yl)bicyclo[4.1.0]heptan-3-yl)oxy)methyl)-5-methyl-3-((phenylmethyl)sulfonamido)pyrrolidine-1-carboxylate]
1.4 nM | COC(=O)N1[C@H](C)C[C@H](NS(C)(=O)=O)[C@@H]1CO[C@H]1CC[C@@]2(c3ncc(F)cn3)C[C@H]2C1 (single isomer, unassigned) [Example 137]
8 nM | CCC(C)S(=O)(=O)N[C@H]1C[C@@H](C)N(C(=O)OC)[C@H]1CO[C@H]1CC[C@@]2(c3ncc(F)cn3)C[C@H]2C1 (stereo partly drawn) [Example 41, methyl (2R,3S,5R)-2-((((1S,3S,6R)-6-(5-fluoropyrimidin-2-yl)bicyclo[4.1.0]heptan-3-yl)oxy)methyl)-5-methyl-3-((1-methylpropyl)sulfonamido)pyrrolidine-1-carboxylate]
24.5 nM | COC(=O)N1[C@H](C)C[C@H](NS(C)(=O)=O)[C@@H]1CO[C@@H]1CC[C@]2(c3ncc(F)cn3)C[C@@H]2C1 (single isomer, unassigned) [Example 136]
2.3 nM | C[C@@H]1C[C@H](NS(C)(=O)=O)[C@H](CO[C@H]2CC[C@@]3(c4ncc(F)cn4)C[C@H]3C2)N1C(=O)OCC1(F)CC1 [Example 61, (1-fluorocyclopropyl)methyl (2R,3S,5R)-2-((((1S,3S,6R)-6-(5-fluoropyrimidin-2-yl)bicyclo[4.1.0]heptan-3-yl)oxy)methyl)-5-methyl-3-(methylsulfonamido)pyrrolidine-1-carboxylate]
0.93 nM | CCS(=O)(=O)N[C@H]1C[C@@H](C)N(C(=O)OC)[C@H]1CO[C@H]1CC[C@@]2(c3ncc(F)cn3)C[C@H]2C1 [Example 36, methyl (2R,3S,5R)-3-(ethylsulfonamido)-2-((((1S,3S,6R)-6-(5-fluoropyrimidin-2-yl)bicyclo[4.1.0]heptan-3-yl)oxy)methyl)-5-methylpyrrolidine-1-carboxylate]
